From patent US20240415918A1, “Polypeptide and its use as a CCK receptor agonist/antagonist” (Centre for Regenerative Medicine & Health, Hong Kong …, priority 2021, published 2024)
Entries after “also recorded” stand apart in the source; their conditions may differ.

Assays:
[1] = test system: neocortex of Alzheimer's mice; test: Long-term potentiation, in vitro field potential recording of brain slices (MED64), Alzheimer's mice; type: cell-based; details: compound injected for five minutes
Source text: An in vitro electrophysiological electrical signal recording method was used to investigate whether compound HT-267 can induce long-term potentiation in the neocortex of Alzheimer's mice. The MED64 low-noise multi-electrode recording system was used to record the electrical signals of brain slices cultured in vitro. […] It was shown that compound HT-267 could induce long-term potentiation in the neocortex of Alzheimer's mice.

[2] = Pharmacokinetics in KM mice after intravenous administration; details: male, mouse, plasma, 1 mg/kg
[3] = molecular target: T1, CCK-B receptors (CHO-CCK) (Homo sapiens, UniProt P32239); test: Calcium flux (Fluo-8) agonist test on CHO-CCK model cells; type: cell-based; details: CHO-CCK cells
T1 construct: expressed in transfected cells; host or cells: CHO (CHO-CCK model cells)
T1 sequence (P32239 1-447): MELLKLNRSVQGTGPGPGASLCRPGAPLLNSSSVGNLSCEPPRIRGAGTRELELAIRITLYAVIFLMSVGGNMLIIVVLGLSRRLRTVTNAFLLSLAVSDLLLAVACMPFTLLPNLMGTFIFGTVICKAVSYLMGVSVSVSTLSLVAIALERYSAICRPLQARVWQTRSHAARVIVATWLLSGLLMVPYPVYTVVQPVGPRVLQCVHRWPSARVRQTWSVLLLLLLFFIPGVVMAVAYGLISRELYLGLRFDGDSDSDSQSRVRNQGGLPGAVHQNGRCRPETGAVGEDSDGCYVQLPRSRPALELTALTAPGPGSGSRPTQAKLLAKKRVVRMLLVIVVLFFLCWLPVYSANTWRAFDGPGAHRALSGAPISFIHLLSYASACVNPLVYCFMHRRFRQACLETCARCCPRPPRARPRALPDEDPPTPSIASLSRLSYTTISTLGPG
Method in brief: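 Agonist-mode Fluo-8 calcium flux read on CHO-CCK cells after dye loading 30 min at 37 °C plus 30 min at room temperature.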

memory-deficient mice = test: Morris water maze, memory-deficient mice; type: in vivo; details: intraperitoneal injection, CCK4 four times a day 10 days, HT compounds once a day 8 days
Source text: Adult memory-deficient mice were housed under standard conditions with free access to food and water. Our Morris water maze experiment for testing memory-deficient mice mainly included two parts: positioning navigation experiment and space exploration experiment. The experimental methods were the same as Example 5. We randomized memory-deficient mice into six groups, with the first group given intraperitoneal injection of the CCK4 solution, the second group given intraperitoneal injection of the solvent of CCK4 solution as a control, the third group given intraperitoneal injection of the compound HT-267 solution, the fourth group given intraperitoneal injection of the compound HT-177 solution, the fifth group given intraperitoneal injection of the compound HT-178 solution, and the sixth group given intraperitoneal injection of the solvent of compound solution as a control. In the positioning navigation experiment, the treatment and training methods of the first and the second groups were the same as those of the first and second groups in Example 5, that is, four times of treatment a day, four times of training a day, for a total of 10 days of training. The treatment and training methods of the third to sixth groups were the same as the third and fourth groups in Example 5, that is, one treatment a day, four times of training a day, for a total of 8 days of training. In the space exploration experiment, the spatial memory ability of mice was tested in the same way for each group.

[4] = test system: tri-transgenic Alzheimer's mice (3×Tg-AD); test: Morris water maze, Alzheimer's mice; type: in vivo; details: intraperitoneal injection
Source text: Adult male tri-transgenic Alzheimer's mice (3×Tg-AD) were housed under standard conditions with free access to food and water. Our Morris water maze experiment for testing Alzheimer's mice mainly included two parts: positioning navigation experiment and space exploration experiment. The positioning navigation experiment lasted for 8-10 days, and the mice were put into the water four times a day from four entry points facing the pool wall, and the time they spent in finding the hidden platform under the water surface (evasion latency) was recorded. The space exploration experiment was to remove the platform after the positioning navigation experiment, and then put the mice into the pool, record their swimming tracks within one minute, investigate the memory of the mice on the original platform, and calculate the proportion of exploration duration of the mice in the quadrant where the original platform was located (target quadrant). Alzheimer's mice were confirmed to have memory deficiency in the Morris water maze experiment, showing not only a longer evasion latency for positioning the hidden platform in the positioning navigation experiment, but also a worse memory backtracking ability in the space exploration experiment. We randomized Alzheimer's mice into four groups, with the first group given intraperitoneal injection of the CCK4 solution, the second group given intraperitoneal injection of the solvent of CCK4 solution as a control, the third group given intraperitoneal injection of the compound HT-267 solution, and the fourth group given intraperitoneal injection of the solvent of HT-267 solution as a control.

Compound: CSCC[C@H](NC(=O)[C@@H](Cc1c[nH]c2ccccc12)NC(C)=O)C(=O)N[C@@H](CC(=O)O)C(=O)N[C@@H](Cc1cccc(Br)c1)C(N)=O [HT-267, Ac-D-Trp-Met-Asp-Phe(3-Br)-NH2]
- basal field potential after administration (long-term potentiation) [1]: enhanced, and the enhancement lasted for more than one hour
- AUC(0-inf) [2]: 302 ng·h/mL
- Cmax [2]: 1930 ng/mL
- Tmax [2]: 1.98 min
- half-life ([2]; T1/2, KM mice male, I.V. 1 mg/kg): 96.1 min
- EC50 ([3]; Fluo-8 calcium flux, 100% control = 20 nM CCK8): 0.113 nM
- agonistic/antagonistic activity on CCK-B receptors (in words) ([3]; calcium signal): more active
- proportion of exploration duration in the target quadrant vs control (memory-deficient mice): significantly higher than that in the control group; also recorded: best effect
- proportion of exploration duration in the target quadrant vs control [4]: significantly higher than the control group; also recorded: slightly better than the CCK4 administration group
- spatial exploration tracks in space exploration experiment [4]: more spatial exploration tracks at the original position of the platform
- evasion latency in positioning navigation experiment vs control ([4]; CCK4 four times a day 10 days, HT-267 once a day 8 days): shorter than that of the control group
